Laboratory results reported in BindingDB's records for doi:10.1021/jm960288w (Drew University, 1997).

Assay: Compound was tested for inhibition of [3H]WIN-35428 binding at the dopamine transporter in brain from guinea pig striatal membrane

Q: For OC1(c2ccc(Cl)cc2)c2ccccc2C2=NCCCCN21 (configuration not stated) [7-(4-Chloro-phenyl)-2,4,5,7-tetrahydro-3H-[1,3]diazepino[2,1-a]isoindol-7-ol], which IC50 is on record?
A: 2.7 nM

Q: For OC1(c2ccc(Cl)cc2)c2ccccc2C2=NCCCN21 (configuration not stated) [9-(4-Chloro-phenyl)-1,2,3,9-tetrahydro-4,9a-diaza-fluoren-9-ol], which IC50 is on record?
A: 4.2 nM
